Consider 16 compounds from ChEMBL document CHEMBL1135079, “CCR5 antagonists: bicyclic isoxazolidines as conformationally constrained N-1-substituted pyrrolidines” (Bioorg Med Chem Lett, 2002).

The target in test [1] is C-C chemokine receptor type 5 (Homo sapiens, UniProt P51681). The test is described as follows: Ability to displace [125I]-labeled MIP-1alpha from the C-C chemokine receptor type 5 expressed on CHO cell membranes.
Test [2] relates to Human immunodeficiency virus 1. The test is described as follows: Antiviral activity against BAL strain of HIV using HeLa cell anti-infectivity assay. Type of test: functional. The following applies: Human immunodeficiency virus 1, HeLa.

Chain of C-C chemokine receptor type 5 (P51681 whole entry): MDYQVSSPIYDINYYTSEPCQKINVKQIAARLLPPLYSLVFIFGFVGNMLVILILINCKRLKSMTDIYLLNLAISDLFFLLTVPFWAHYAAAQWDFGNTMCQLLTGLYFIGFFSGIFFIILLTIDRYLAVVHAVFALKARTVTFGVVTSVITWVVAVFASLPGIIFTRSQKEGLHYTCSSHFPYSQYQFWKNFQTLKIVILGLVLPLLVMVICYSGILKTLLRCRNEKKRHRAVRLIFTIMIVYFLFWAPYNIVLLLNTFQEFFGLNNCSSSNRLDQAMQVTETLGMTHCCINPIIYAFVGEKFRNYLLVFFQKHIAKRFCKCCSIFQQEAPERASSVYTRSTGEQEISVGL

By IC50 is commonly meant the midpoint of a concentration-inhibition curve. The low end stands for greater potency in that assay, the high end for weaker potency in that assay. What is called IC90 is the concentration needed for an effect of 90%. In test [1], `C=CCN(C(=O)OCc1ccc([N+](=O)[O-])cc1)C1CCN(C[C@H]2CN3OC4(CCCCC4)C[C@H]3[C@@H]2c2ccccc2)CC1` returned an IC50 of 0.00013 µM. In test [2], the IC90 stood at 0.033 µM.
On to `C=CCN(C(=O)OCc1ccc([N+](=O)[O-])cc1)C1CCN(C[C@@H]2[C@@H](c3ccccc3)CN3OC4(CCCCC4)C[C@@H]23)CC1`, for which, in test [1], the IC50 turned out to be 0.014 µM.
Turning to `CCN(C(=O)OCc1ccccc1)C1CCN(C[C@@H]2[C@@H](c3ccccc3)CN3O[C@H](c4ccccc4)C[C@@H]23)CC1`, in test [1], the IC50 was found to be 0.046 µM.
In turn, `C=CCN(C(=O)OCc1ccc([N+](=O)[O-])cc1)C1CCN(C[C@@H]2[C@@H](c3ccccc3)CN3O[C@H](c4ccccc4)C[C@@H]23)CC1` registered an IC50 in test [1] of 0.006 µM. In addition, in test [2], the 90% effect concentration (IC90) is > 0.3 µM.
For `c1ccc(CCCC2CCN(C[C@H]3CN4OC5(CCCCC5)C[C@H]4[C@@H]3c3ccccc3)CC2)cc1`, in that order: 0.008 µM and > 0.3 µM.
`c1ccc(C2CCN(C[C@H]3CN4O[C@H](c5ccccc5)C[C@H]4[C@@H]3c3ccccc3)CC2)cc1`: the IC50 in test [1] came to 0.027 µM. That is a double-digit nanomolar value.
With `c1ccc(CCCC2CCN(C[C@H]3CN4O[C@H](c5ccccc5)C[C@H]4[C@@H]3c3ccccc3)CC2)cc1`, the IC50 in test [1] was determined as 0.005 µM. Further, the IC90 in test [2] was > 0.3 µM.
`CCN(C(=O)OCc1ccccc1)C1CCN(C[C@@H]2[C@@H](c3ccccc3)CN3OC4(CCCCC4)C[C@@H]23)CC1` returned an IC50 in test [1] of 0.086 µM. This lies in the double-digit nanomolar range.
Same read-out and setting: the result for `c1ccc(C2CCN(C[C@@H]3[C@@H](c4ccccc4)CN4O[C@H](c5ccccc5)C[C@@H]34)CC2)cc1` reads 0.03 µM.
On to `C=CCN(C(=O)OCc1ccc([N+](=O)[O-])cc1)C1CCN(C[C@H]2CN(C(=O)C3CCCCC3)C[C@@H]2c2ccccc2)CC1`, for which the IC90 in test [2] was determined as 0.004 µM. That is a single-digit nanomolar value.
In turn, `c1ccc(C2CCN(C[C@H]3CN4OC5(CCCCC5)C[C@H]4[C@@H]3c3ccccc3)CC2)cc1` had an IC50 in test [1] of 0.043 µM.
Still for that read-out and setting: with `c1ccc(CCCC2CCN(C[C@@H]3[C@@H](c4ccccc4)CN4O[C@H](c5ccccc5)C[C@@H]34)CC2)cc1` the figure was 0.011 µM.
With `CCN(C(=O)OCc1ccccc1)C1CCN(C[C@H]2CN3O[C@H](c4ccccc4)C[C@H]3[C@@H]2c2ccccc2)CC1`, the IC50 in test [1] was ~0.027 µM.
Regarding `CCN(C(=O)OCc1ccccc1)C1CCN(C[C@H]2CN3OC4(CCCCC4)C[C@H]3[C@@H]2c2ccccc2)CC1`, the IC50 in test [1] was 0.005 µM. In addition, the IC90 in test [2] is > 0.3 µM.
Consider `C=CCN(C(=O)OCc1ccc([N+](=O)[O-])cc1)C1CCN(C[C@H]2CN3O[C@H](c4ccccc4)C[C@H]3[C@@H]2c2ccccc2)CC1`, for which the IC50 in test [1] turned out to be 0.0025 µM. In test [2], this compound showed an IC90 of 0.3 µM.
Compound `c1ccc(C2CCN(C[C@@H]3[C@@H](c4ccccc4)CN4OC5(CCCCC5)C[C@@H]34)CC2)cc1` showed an IC50 in test [1] of 0.033 µM.
